# From ChEMBL document CHEMBL5465560, “Selectivity Literature for EUbOPEN Chemogenomic Library” (2024)
# Legend:
# [1] = molecular target: T1, Serine/threonine-protein kinase RIO3 (Homo sapiens) (UniProt O14730); test: Selectivity interaction (KinomeScan (DiscoverX)) EUB0000618a RIOK3; settings: at 10 µM
# T1 sequence (whole entry): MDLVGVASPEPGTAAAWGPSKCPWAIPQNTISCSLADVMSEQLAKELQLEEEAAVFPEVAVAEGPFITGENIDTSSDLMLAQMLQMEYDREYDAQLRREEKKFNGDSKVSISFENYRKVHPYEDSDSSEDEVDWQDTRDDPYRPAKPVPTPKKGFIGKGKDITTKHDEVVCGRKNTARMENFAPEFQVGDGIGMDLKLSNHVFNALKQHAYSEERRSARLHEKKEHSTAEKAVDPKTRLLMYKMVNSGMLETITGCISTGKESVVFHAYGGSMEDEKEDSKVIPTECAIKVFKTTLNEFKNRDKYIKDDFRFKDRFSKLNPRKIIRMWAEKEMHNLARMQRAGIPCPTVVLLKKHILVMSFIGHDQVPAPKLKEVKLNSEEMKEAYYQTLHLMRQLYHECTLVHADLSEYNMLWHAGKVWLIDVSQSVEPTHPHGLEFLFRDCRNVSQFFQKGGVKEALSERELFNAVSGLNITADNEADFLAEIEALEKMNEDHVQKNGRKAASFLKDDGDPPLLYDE
# [2] = molecular target: Dual specificity tyrosine-phosphorylation-regulated kinase 1A (Homo sapiens, UniProt Q13627); test: Selectivity interaction (Kinase panel (DSF assay)) EUB0001558a DYRK1A
# [3] = molecular target: T2, Inhibitor of nuclear factor kappa-B kinase subunit epsilon (Homo sapiens) (UniProt Q14164); test: Selectivity interaction (ActivX KiNativ screen (kinase selectivity in THP-1 cell lysates)) EUB0000639a IKBKE; format: subcellular; settings: lysate, at 0.01 µM
# T2 sequence (whole entry): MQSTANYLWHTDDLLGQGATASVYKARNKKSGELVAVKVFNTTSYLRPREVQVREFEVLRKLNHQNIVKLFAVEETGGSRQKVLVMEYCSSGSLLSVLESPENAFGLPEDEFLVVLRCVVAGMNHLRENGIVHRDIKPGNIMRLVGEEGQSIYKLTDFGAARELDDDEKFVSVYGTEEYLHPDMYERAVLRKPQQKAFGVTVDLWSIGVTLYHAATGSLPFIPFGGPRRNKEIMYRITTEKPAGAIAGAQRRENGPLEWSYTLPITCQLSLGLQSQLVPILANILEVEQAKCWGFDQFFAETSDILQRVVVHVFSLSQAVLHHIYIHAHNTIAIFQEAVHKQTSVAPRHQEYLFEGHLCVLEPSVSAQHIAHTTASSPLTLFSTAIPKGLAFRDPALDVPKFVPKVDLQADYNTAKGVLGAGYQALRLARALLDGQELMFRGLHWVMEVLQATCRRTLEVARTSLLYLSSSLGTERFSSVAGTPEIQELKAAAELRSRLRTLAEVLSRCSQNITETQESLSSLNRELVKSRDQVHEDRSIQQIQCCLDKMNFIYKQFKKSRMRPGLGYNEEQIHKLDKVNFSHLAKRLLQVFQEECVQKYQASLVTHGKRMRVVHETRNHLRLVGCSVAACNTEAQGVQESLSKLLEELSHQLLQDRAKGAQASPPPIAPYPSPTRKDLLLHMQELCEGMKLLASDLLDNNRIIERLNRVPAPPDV
# [4] = molecular target: Atypical kinase COQ8A, mitochondrial (Homo sapiens, UniProt Q8NI60); test: Selectivity interaction (Competition-binding assay (DiscoverX)) EUB0000229b ADCK3
# Chain of Atypical kinase COQ8A, mitochondrial (Q8NI60 whole entry): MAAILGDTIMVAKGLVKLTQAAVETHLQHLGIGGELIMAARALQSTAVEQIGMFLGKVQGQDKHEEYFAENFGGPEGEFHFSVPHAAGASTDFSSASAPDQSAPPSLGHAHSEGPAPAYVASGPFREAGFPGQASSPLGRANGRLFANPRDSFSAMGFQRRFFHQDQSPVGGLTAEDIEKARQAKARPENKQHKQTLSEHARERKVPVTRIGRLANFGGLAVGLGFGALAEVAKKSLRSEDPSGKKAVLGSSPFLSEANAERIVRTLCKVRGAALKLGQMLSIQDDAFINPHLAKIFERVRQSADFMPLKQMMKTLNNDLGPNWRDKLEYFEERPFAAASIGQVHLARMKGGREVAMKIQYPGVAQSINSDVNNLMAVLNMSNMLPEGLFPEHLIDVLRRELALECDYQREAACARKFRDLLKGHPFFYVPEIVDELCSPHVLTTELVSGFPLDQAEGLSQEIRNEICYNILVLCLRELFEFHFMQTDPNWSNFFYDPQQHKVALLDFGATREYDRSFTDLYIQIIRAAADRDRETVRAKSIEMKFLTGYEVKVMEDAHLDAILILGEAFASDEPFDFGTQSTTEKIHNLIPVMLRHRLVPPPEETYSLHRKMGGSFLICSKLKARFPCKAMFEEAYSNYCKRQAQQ
# [5] = molecular target: Cyclin-dependent kinase 9 (Homo sapiens, UniProt P50750); test: Selectivity interaction (KinomeScan (DiscoverX)) EUB0000666a CDK9; settings: at 10 µM
# Chain of Cyclin-dependent kinase 9 (P50750 whole entry): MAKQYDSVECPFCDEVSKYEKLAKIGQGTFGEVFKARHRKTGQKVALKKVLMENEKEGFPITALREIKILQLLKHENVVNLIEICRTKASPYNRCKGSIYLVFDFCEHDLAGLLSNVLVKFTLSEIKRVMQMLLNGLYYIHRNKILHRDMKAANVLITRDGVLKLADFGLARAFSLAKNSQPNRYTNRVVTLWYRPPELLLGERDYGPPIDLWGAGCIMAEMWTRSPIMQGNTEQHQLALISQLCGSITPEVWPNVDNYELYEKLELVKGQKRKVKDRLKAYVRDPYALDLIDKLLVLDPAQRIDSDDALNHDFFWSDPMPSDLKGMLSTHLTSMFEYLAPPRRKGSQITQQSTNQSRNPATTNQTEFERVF
# [6] = molecular target: Tyrosine-protein kinase Lyn (Homo sapiens, UniProt P07948); test: Selectivity interaction (Kinase panel (Z-LYTE Assay)) EUB0001632a LYN; settings: at 10 µM
# Chain of Tyrosine-protein kinase Lyn (P07948 2-512 limits assumed): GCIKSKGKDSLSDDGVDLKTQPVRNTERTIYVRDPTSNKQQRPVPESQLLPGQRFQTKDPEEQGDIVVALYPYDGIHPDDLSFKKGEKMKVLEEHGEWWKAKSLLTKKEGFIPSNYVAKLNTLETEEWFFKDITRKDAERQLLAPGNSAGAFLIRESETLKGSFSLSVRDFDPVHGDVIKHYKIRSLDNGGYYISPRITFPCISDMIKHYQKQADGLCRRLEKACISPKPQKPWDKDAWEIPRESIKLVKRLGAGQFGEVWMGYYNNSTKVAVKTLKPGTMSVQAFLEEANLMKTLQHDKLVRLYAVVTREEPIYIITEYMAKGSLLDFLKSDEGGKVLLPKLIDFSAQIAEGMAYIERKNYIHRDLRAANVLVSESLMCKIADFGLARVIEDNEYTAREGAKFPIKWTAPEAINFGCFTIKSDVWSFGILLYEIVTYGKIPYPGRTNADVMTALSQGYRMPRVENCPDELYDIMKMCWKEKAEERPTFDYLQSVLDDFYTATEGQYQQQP
# [7] = molecular target: T3, Cyclin-G-associated kinase (Homo sapiens) (UniProt O14976); test: Selectivity interaction (LanthaScreen Eu Kinase Binding Assay) EUB0001632a GAK; settings: at 10 µM
# T3 sequence (whole entry): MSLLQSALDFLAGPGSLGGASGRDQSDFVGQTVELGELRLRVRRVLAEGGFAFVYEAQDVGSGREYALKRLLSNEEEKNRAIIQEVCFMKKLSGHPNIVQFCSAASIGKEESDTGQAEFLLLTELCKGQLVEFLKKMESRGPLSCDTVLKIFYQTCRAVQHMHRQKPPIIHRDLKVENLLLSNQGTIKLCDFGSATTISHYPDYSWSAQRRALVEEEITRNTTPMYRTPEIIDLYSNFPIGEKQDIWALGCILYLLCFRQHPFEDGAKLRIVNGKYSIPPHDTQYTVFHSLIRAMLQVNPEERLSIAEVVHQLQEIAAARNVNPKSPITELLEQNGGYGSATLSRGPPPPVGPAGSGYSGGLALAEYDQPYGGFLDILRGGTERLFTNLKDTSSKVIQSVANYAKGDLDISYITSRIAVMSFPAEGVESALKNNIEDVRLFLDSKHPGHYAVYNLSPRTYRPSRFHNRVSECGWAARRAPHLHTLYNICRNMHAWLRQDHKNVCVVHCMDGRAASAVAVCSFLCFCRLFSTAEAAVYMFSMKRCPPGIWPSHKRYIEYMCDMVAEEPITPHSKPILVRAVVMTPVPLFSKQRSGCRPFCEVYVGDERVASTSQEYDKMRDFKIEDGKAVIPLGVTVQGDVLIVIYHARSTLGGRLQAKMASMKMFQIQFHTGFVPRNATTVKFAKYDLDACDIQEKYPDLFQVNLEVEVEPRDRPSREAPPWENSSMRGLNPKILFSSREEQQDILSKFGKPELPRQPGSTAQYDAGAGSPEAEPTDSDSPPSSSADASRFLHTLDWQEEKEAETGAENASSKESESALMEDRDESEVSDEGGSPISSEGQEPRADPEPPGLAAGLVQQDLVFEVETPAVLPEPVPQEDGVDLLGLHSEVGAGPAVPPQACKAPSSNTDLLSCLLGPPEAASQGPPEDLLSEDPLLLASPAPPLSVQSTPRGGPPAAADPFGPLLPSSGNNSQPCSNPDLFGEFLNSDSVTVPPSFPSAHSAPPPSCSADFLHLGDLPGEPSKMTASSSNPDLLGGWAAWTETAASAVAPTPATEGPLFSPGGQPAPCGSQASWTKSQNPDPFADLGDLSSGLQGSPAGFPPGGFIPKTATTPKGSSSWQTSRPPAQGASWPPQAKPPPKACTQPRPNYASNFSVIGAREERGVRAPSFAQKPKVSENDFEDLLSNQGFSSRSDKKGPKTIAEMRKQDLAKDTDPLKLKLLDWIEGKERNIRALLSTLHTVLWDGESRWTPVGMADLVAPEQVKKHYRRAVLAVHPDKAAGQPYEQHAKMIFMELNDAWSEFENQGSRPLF
# [8] = molecular target: PAS domain-containing serine/threonine-protein kinase (Homo sapiens) (UniProt Q96RG2); test: Selectivity interaction (Kinase screening (Nanosyn)) EUB0000604a PASK
# Chain of PAS domain-containing serine/threonine-protein kinase (Homo sapiens) (Q96RG2 whole entry, the tested form may be a part): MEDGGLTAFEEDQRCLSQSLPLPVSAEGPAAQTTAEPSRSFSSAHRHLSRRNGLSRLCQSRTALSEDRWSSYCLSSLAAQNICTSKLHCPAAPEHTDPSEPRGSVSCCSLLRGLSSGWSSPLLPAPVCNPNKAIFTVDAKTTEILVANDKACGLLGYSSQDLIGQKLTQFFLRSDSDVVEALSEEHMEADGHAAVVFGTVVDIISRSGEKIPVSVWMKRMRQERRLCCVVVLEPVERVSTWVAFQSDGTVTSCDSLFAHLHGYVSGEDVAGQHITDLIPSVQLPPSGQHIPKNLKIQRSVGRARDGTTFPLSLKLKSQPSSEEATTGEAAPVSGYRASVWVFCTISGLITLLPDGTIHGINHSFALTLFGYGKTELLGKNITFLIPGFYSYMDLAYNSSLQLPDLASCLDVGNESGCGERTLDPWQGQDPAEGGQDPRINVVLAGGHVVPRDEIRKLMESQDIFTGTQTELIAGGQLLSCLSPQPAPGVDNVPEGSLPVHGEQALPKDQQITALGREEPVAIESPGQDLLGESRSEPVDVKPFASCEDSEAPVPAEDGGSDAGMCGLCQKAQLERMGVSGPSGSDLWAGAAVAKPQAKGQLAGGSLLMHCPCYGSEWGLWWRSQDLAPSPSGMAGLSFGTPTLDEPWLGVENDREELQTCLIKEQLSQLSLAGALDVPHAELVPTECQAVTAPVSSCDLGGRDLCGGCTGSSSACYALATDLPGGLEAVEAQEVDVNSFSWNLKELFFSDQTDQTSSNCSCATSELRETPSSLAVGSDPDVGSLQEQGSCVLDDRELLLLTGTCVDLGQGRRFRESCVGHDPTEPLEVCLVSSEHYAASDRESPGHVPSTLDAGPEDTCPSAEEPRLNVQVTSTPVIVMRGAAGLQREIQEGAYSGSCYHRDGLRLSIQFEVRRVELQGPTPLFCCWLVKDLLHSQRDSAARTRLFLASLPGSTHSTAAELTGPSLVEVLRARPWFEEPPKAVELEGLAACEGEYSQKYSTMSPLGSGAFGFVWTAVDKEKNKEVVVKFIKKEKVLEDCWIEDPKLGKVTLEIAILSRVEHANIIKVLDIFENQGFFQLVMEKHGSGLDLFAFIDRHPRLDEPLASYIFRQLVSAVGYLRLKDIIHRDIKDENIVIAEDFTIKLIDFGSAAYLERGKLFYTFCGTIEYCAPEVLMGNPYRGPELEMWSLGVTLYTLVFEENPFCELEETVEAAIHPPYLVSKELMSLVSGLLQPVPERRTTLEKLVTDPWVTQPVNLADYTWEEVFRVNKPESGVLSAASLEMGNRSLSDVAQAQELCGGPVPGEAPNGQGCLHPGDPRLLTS
compound,measurement,setting,value
O[C@H]1CC[C@H](Nc2ncc3nc(Nc4c(F)cc(F)cc4F)n([C@H]4CCOC4)c3n2)CC1,% of control,[1],100%
CC(C)(O)[C@H](F)CN1Cc2cc(NC(=O)c3cnn4cccnc34)c(N3CCOCC3)cc2C1=O,dTM,[2],0.2 K
CC[C@@H]1[C@H](F)C(=O)N[C@@H]1COc1nccc2cc(C(N)=O)c(OC)cc12 [ZIMLOVISERTIB],% of inhibition,[3],-51.9%
COc1cc(N(C)c2ccnc3ccc(C(F)(F)F)cc23)cc(OC)c1OC,Kd,[4],> 10 µM
O=C(NOC[C@H](O)CO)c1ccc(F)c(F)c1Nc1ccc(I)cc1F,% of control,[5],76%
Cn1cc(-n2cnc3c(NCc4nc5cc(Cl)c(Cl)cc5[nH]4)nc(N4CCOCC4)nc32)cn1,% of control,[6],6.83%
same,% of inhibition,[7],-16.7%
Cc1cnc(Nc2ccc(F)cc2Cl)nc1-c1c[nH]c(C(=O)N[C@H](CO)c2cccc(Cl)c2)c1,% of inhibition,[8],19%
